# In patent US20230278972A1, “SUBSTITUTED HALOALKYL SULFONANILIDE HERBICIDES” (FMC Corporation, priority 2020, published 2023):
# Columns and labels:
# Type in all cases: in vivo
# [1] = system: corn (Zea mays); assay: Test A postemergence, corn; conditions: Postemergence
# Method in brief: (§1)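 Greenhouse pot test in a loam–sand blend; compounds delivered in a non-phytotoxic solvent carrying a surfactant, applied either as a directed spray to soil at seeding or over seedlings 2 to 10 cm high with one to two leaves.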
# [2] = system: blackgrass (Alopecurus myosuroides); assay: Test A postemergence, blackgrass; conditions: Postemergence, 0 to 100 scale (0 no effect, 100 complete control)
# Method in brief: as §1
# [3] = system: Ryegrass, Italian (Italian ryegrass, Lolium multiflorum); assay: Test A preemergence, Ryegrass, Italian; conditions: Preemergence; for Plant response rating, Ryegrass, Italian: 0 to 100 scale (0 no effect, 100 complete control)
# Method in brief: as §1
# [4] = system: Foxtail, Giant (giant foxtail, Setaria faberi); assay: Test A preemergence, Foxtail, Giant; conditions: Preemergence; for Plant response rating, Foxtail, Giant: 0 to 100 scale (0 no effect, 100 complete control)
# Method in brief: as §1
# [5] = system: wheat (Triticum aestivum); assay: Test A postemergence, wheat; conditions: Postemergence
# Method in brief: as §1
# [6] = system: Ryegrass, Italian (Italian ryegrass, Lolium multiflorum); assay: Test A postemergence, Ryegrass, Italian; conditions: Postemergence
# Method in brief: as §1
# [7] = system: Foxtail, Giant (giant foxtail, Setaria faberi); assay: Test A postemergence, Foxtail, Giant; conditions: Postemergence
# Method in brief: as §1
# [8] = system: kochia (Bassia scoparia); assay: Test A preemergence, kochia; conditions: Preemergence; for Plant response rating, Kochia: 0 to 100 scale (0 no effect, 100 complete control)
# Method in brief: as §1
# [9] = system: pigweed (Amaranthus retroflexus); assay: Test A postemergence, pigweed; conditions: Postemergence
# Method in brief: as §1
# [10] = system: kochia (Bassia scoparia); assay: Test A postemergence, kochia; conditions: Postemergence
# Method in brief: as §1
# [11] = system: pigweed (Amaranthus retroflexus); assay: Test A preemergence, pigweed; conditions: for Plant response rating, Pigweed: 0 to 100 scale (0 no effect, 100 complete control)
# Method in brief: as §1
# [12] = system: ragweed (common ragweed, Ambrosia artemisiifolia); assay: Test A preemergence, ragweed; conditions: Preemergence; for Plant response rating, Ragweed: 0 to 100 scale (0 no effect, 100 complete control)
# Method in brief: as §1
# [13] = system: galium (catchweed bedstraw, Galium aparine); assay: Test A postemergence, galium; conditions: Postemergence
# Method in brief: as §1
# [14] = system: barnyardgrass (Echinochloa crus-galli); assay: Test A postemergence, barnyardgrass; conditions: Postemergence, 0 to 100 scale (0 no effect, 100 complete control)
# Method in brief: as §1
# [15] = system: barnyardgrass (Echinochloa crus-galli); assay: Test A preemergence, barnyardgrass; conditions: Preemergence; for Plant response rating, Barnyardgrass: 0 to 100 scale (0 no effect, 100 complete control)
# Method in brief: as §1
# [16] = system: ragweed (common ragweed, Ambrosia artemisiifolia); assay: Test A postemergence, ragweed; conditions: Postemergence
# Method in brief: as §1
# [17] = 31 g ai/ha, visual injury on 0 to 100 scale (0 no effect, 100 complete control), approx. 10 days
# [18] = 125 g ai/ha, visual injury approx. 10 days, 0 to 100 scale (0 no effect, 100 complete control)
# [19] = 125 g ai/ha, visual injury approx. 10 days
# [20] = 31 g ai/ha, visual injury, approx. 10 days
# [21] = 125 g ai/ha, visual injury on 0 to 100 scale (0 no effect, 100 complete control), approximately 10 days
# [22] = 125 g ai/ha, 0 to 100 scale (0 no effect, 100 complete control)
# [23] = 500 g ai/ha, visual injury vs untreated controls after approx. 10 days, 0 to 100 scale (0 no effect, 100 complete control)
# [24] = 500 g ai/ha, visual injury vs untreated controls after approx. 10 days
# [25] = 125 g ai/ha, visual injury, approx. 10 days
smiles,measurement,setting,value
Cc1cc(C)c(N(S(=O)(=O)C(F)(F)F)S(=O)(=O)C(F)(F)F)cc1C(=O)N1CCCC(F)C1 (stereo not drawn) [Compound 118],"Plant response rating, Corn",[1]; [17],0
same,"Plant response rating, Corn",[1]; [18],0
same,"Plant response rating, Blackgrass",[2]; 31 g ai/ha,20
same,"Plant response rating, Blackgrass",[2]; [19],10
same,"Plant response rating, Ryegrass, Italian",[3]; [20],40
same,"Ryegrass, Italian plant response rating",[3]; [21],80
same,"Plant response rating, Foxtail, Giant",[4]; [20],80
same,"Foxtail, Giant plant response rating",[4]; [21],100
same,"Plant response rating, Wheat",[5]; [17],0
same,"Plant response rating, Wheat",[5]; [18],40
same,"Plant response rating, Ryegrass, Italian",[6]; [17],0
same,"Plant response rating, Foxtail, Giant",[7]; [17],0
same,"Plant response rating, Foxtail, Giant",[7]; [18],30
same,"Plant response rating, Kochia",[8]; [20],0
same,Kochia plant response rating,[8]; [21],0
same,"Plant response rating, Pigweed",[9]; [17],30
same,"Plant response rating, Pigweed",[9]; [18],90
same,"Plant response rating, Kochia",[10]; [17],10
same,"Plant response rating, Kochia",[10]; [18],40
same,"Plant response rating, Pigweed",[11]; [20],100
same,Pigweed plant response rating,[11]; [21],100
same,"Plant response rating, Ragweed",[12]; [20],50
same,Ragweed plant response rating,[12]; [21],100
same,"Plant response rating, Galium",[13]; [17],40
same,"Plant response rating, Galium",[13]; [18],90
same,"Plant response rating, Barnyardgrass",[14]; 31 g ai/ha,10
same,"Plant response rating, Barnyardgrass",[14]; [19],90
same,"Plant response rating, Barnyardgrass",[15]; [20],0
same,Barnyardgrass plant response rating,[15]; [21],90
same,"Plant response rating, Ragweed",[16]; [17],20
same,"Plant response rating, Ragweed",[16]; [18],80
Cc1cc(C)c(C2=NOC(C)(C)C2)cc1NS(=O)(=O)C(F)(F)F [Compound 206],"Plant response rating, Corn",[1]; [22],0
same,Corn plant response rating,[1]; [23],70
same,"Plant response rating, Blackgrass",[2]; 125 g ai/ha,50
same,Blackgrass plant response rating,[2]; [24],50
same,"Plant response rating, Ryegrass, Italian",[3]; [25],80
same,"Plant response rating, Ryegrass, Italian",[3]; 500 g ai/ha,90
same,"Plant response rating, Foxtail, Giant",[4]; [25],80
same,"Plant response rating, Foxtail, Giant",[4]; 500 g ai/ha,90
same,"Plant response rating, Wheat",[5]; [22],60
same,Wheat plant response rating,[5]; [23],80
same,"Plant response rating, Ryegrass, Italian",[6]; [22],50
same,"Ryegrass, Italian plant response rating",[6]; [23],90
same,"Plant response rating, Foxtail, Giant",[7]; [22],50
same,"Foxtail, Giant plant response rating",[7]; [23],60
same,"Plant response rating, Kochia",[8]; [25],80
same,"Plant response rating, Kochia",[8]; 500 g ai/ha,90
same,"Plant response rating, Pigweed",[9]; [22],60
same,Pigweed plant response rating,[9]; [23],70
same,"Plant response rating, Kochia",[10]; [22],20
same,Kochia plant response rating,[10]; [23],70
same,"Plant response rating, Pigweed",[11]; [25],90
same,"Plant response rating, Pigweed",[11]; 500 g ai/ha,100
same,"Plant response rating, Ragweed",[12]; [25],40
same,"Plant response rating, Ragweed",[12]; 500 g ai/ha,80
same,"Plant response rating, Galium",[13]; [22],70
same,Galium plant response rating,[13]; [23],80
same,"Plant response rating, Barnyardgrass",[14]; 125 g ai/ha,60
same,Barnyardgrass plant response rating,[14]; [24],80
same,"Plant response rating, Barnyardgrass",[15]; [25],90
same,"Plant response rating, Barnyardgrass",[15]; 500 g ai/ha,90
same,"Plant response rating, Ragweed",[16]; [22],60
same,Ragweed plant response rating,[16]; [23],90
